Assay results as given in patent publication US3935309A, “Synergistic combinations of phosphonomycin and bacteriostatic agents” (Merck & Co., Inc., priority 1974, dated 1976).
Where two headings read alike, the source gives them in different places.

Tests used:
pathogenic bacteria = experiment: in vitro combination tests with various pathogens (general description); format: cell-based; conditions: for potentiation when combined with phosphonomycin: various strains of pathogenic bacteria
Excerpt: Other experimental results have shown that novobiocin, chlortetracycline and sulfisoxazole are potentiated when combined with phosphonomycin and tested with various strains of pathogenic bacteria.

[1] = tested on: Klebsiella pneumoniae "B"; experiment: Combined antibiotic therapy of experimental infection in mice (Example 5); format: in vivo, mice infected with Klebsiella pneumoniae "B"; conditions: for s.c. ED50: 7 LD50
Excerpt: (§1) For example, using Escherichia coli 2017 as the infecting agent, sodium phosphonomycin was titrated alone and in the presence 5 and also in the presence of 0.5γtetracycline, while tetracycline was titrated alone and in the presence of 50γ, and also in the presence of 5γof sodium phosphonomycin. The two drugs were given by the subcutaneous route at separate sites on the ventral surface of the mouse. Such therapy was given only at the time of infection for the Escherichia coli and Pseudomonas aeruginosa tests but both at the time of infection and 6 hours later for all other tests. Infection was given intraperitoneally using broth suspensions of the test organism.

Pseudomonas aeruginosa = experiment: MIC by two-fold serial broth dilution, alone and in combination (Example 1); format: cell-based; conditions: for MIC: Pseudomonas aeruginosa, read-out: MIC of 2nd Subst.
Description: (§2) The MIC (minimum inhibitory concentration) of phosphonomycin and each of the other antibiotics by itself was determined before the combination synergy experiment was begun, as follows: 2 ml. of a double strength solution in sterile distilled water of the highest strength to be tested (usually 1000γ) was added to a tube of double strength nutrient broth (NB) and mixed thoroughly. Two-fold serial dilutions were then made by transferring 2 ml. to the next tube (1 × NB) and so on for approximately 12 tubes. The tubes were inoculated with one drop each of a 1:50 dilution of a culture adjusted to a Lumetron 60 reading in NB + 0.2% yeast extract so as to provide a concentration of cells of approximately 25,000/ml. The tubes were then incubated at 37°C. and examined for growth at 24, 48 and 72 hours.
(§3) In the combination experiment, the MIC value obtained as described above was used as approximately the midpoint of the range to be tested for each of the two antibiotics of the combination. In a manner similar to the above, two-fold dilutions of the first substance in the combination were made except that 1.8 ml. volumes were used and a 2.2 × strength solution of both the antibiotic and the NB were made. The second antibiotic of the combination was added to duplicate rows of serial dilutions of the first substance as follows: 0.2 ml. in NB of a [formula] and a [formula] respectively, of the second substance was added to each tube in a row of serial dilutions of the first antibiotic. The final concentration that resulted enabled the determination of the effect of both MIC/4 and MIC/8 of each substance in the presence of from approximately 32 MIC to [formula] of the other. Inocula were added as in the initial single MIC experiment.

Klebsiella pneumoniae = experiment: as above; format: cell-based
Description: as §2, §3

Staphylococcus aureus [2] = experiment: as above; format: cell-based; conditions: for MIC: Staphylococcus aureus, read-out: MIC of 2nd Subst.
Description: as §2, §3

Pseudomonas stutzeri = experiment: as above; format: cell-based
Description: as §2, §3

Proteus vulgaris = experiment: as above; format: cell-based; conditions: for MIC: Proteus vulgaris, read-out: MIC of 2nd Subst.
Description: as §2, §3

Streptococcus faecalis = experiment: as above; format: cell-based; conditions: for MIC: Enterococcus faecalis, read-out: MIC of 2nd Subst.
Description: as §2, §3

[3] = tested on: Pseudomonas aeruginosa 3210; experiment: Combined antibiotic therapy of experimental infection in mice (Example 5); format: in vivo, mice infected with Pseudomonas aeruginosa 3210; conditions: for s.c. ED50: 10 LD50
Excerpt: as §1

Escherichia coli 2017 = experiment: Combined antibiotic therapy of Escherichia coli infection in mice (Example 5); format: in vivo, mice infected with Escherichia coli 2017; design: ED50: unit not given beside the values; conditions: for ED50 / % of effective dose: first test
Excerpt: as §1

Staphylococcus aureus [4] = experiment: criss-cross MIC method in nutrient broth (Example 2); format: cell-based; conditions: 37°C, 24 hours, two experiments on different days
Description: This method involved the simultaneous determination of the MIC (minimum inhibitory concentration) of each member of a pair of antibiotics and of combinations of the two in nutrient broth (NB) containing 0.2% yeast extract (YE). Serial two-fold dilutions were made throughout the experiment, and the starting inoculum consisted of approximately 25,000 cells/ml. of Staphylococcus aureus. Incubation was at 37°C. for 24 hours. Identical experiments were performed on two different days.

[5] = tested on: Streptococcus pyogenes 3009; experiment: Combined antibiotic therapy of experimental infection in mice (Example 5); format: in vivo, mice infected with Streptococcus pyogenes 3009; conditions: 6 LD50
Excerpt: as §1

[6] = alone, therapy at 0 and 6 hours, phosphonomycin as sodium salt
[7] = novobiocin itself, at the levels tested
[8] = in presence of MIC/2 instead of ≤ MIC/4
[9] = chloramphenicol repeat test, 7 LD50, chloramphenicol titrated, phosphonomycin constant 5
[10] = chloramphenicol repeat test, 7 LD50, chloramphenicol titrated, phosphonomycin constant 50
[11] = chloramphenicol test 1, 9 LD50, chloramphenicol titrated, phosphonomycin constant 10
[12] = chloramphenicol test 1, 9 LD50, chloramphenicol titrated, phosphonomycin constant 100
[13] = combination of 54% tetracycline with .5% sodium phosphonomycin
[14] = phosphonomycin titrated in the presence of 0.5γ tetracycline
[15] = tetracycline titrated in the presence of 50γ sodium phosphonomycin
[16] = tetracycline repeat test, 7 LD50, tetracycline titrated, phosphonomycin constant 0.5
[17] = tetracycline repeat test, 7 LD50, tetracycline titrated, phosphonomycin constant 50
[18] = tetracycline test 1, 9 LD50, alone
[19] = tetracycline test 1, 9 LD50, tetracycline titrated, phosphonomycin constant 5
[20] = tetracycline test 1, 9 LD50, tetracycline titrated, phosphonomycin constant 50
[21] = tetracycline titrated, phosphonomycin constant 500
[22] = tetracycline titrated, phosphonomycin constant 1000

Cc1noc(NS(=O)(=O)c2ccc(N)cc2)c1C [sulfisoxazole]
potentiation when combined with phosphonomycin (pathogenic bacteria): potentiated

CO[C@@H]1[C@@H](OC(N)=O)[C@@H](O)[C@H](Oc2ccc3c(O)c(NC(=O)c4ccc(O)c(CC=C(C)C)c4)c(=O)oc3c2C)OC1(C)C [Novobiocin]
control of pathogens by combination with phosphonomycin (pathogenic bacteria): effective in controlling pathogens which cannot be effectively controlled by either antibiotic separately | potentiation when combined with phosphonomycin (pathogenic bacteria): potentiated | s.c. ED50 [1, 6]: > 2500 µg | s.c. ED50 ([1]; novobiocin titrated, phosphonomycin > 100): > 2500 µg | s.c. ED50 ([1]; novobiocin with phosphonomycin > 10): > 2500 µg | protection of mice [1, 7]: did not protect | MIC of 2nd Subst. in presence of ≤ MIC/4 of phosphonomycin (Pseudomonas aeruginosa): 62.5 | MIC (Pseudomonas aeruginosa): 250 µg/mL | MIC of 2nd Subst. in presence of ≤ MIC/4 of phosphonomycin (Klebsiella pneumoniae): < 2 | MIC (Klebsiella pneumoniae; Klebsiella pneumoniae, alone, read-out: MIC of 2nd Subst.): 32 µg/mL | MIC (Staphylococcus aureus [2]): 0.06 µg/mL | MIC of 2nd Subst. in presence of phosphonomycin (Staphylococcus aureus [2]; [8]): 0.015 µg/mL | MIC of 2nd Subst. in presence of ≤ MIC/4 of phosphonomycin (Pseudomonas stutzeri): 8 | MIC (Pseudomonas stutzeri; Stutzerimonas stutzeri, alone, read-out: MIC of 2nd Subst.): 32 µg/mL | MIC of 2nd Subst. in presence of ≤ MIC/4 of phosphonomycin (Proteus vulgaris): 3.9 | MIC (Proteus vulgaris): 32 µg/mL | MIC of 2nd Subst. in presence of ≤ MIC/4 of phosphonomycin (Streptococcus faecalis): 4 | MIC (Streptococcus faecalis): 4 µg/mL | s.c. ED50 ([3]; alone, therapy at 0 hour only, phosphonomycin as sodium salt): > 10000 µg | s.c. ED50 ([3]; novobiocin titrated, phosphonomycin > 20): > 10000 µg | s.c. ED50 ([3]; novobiocin with phosphonomycin >200): > 10000 µg | protection of mice [3, 7]: did not protect

CN(C)[C@@H]1C(O)=C(C(N)=O)C(=O)[C@@]2(O)C(O)=C3C(=O)c4c(O)ccc(Cl)c4[C@@](C)(O)[C@H]3C[C@@H]12 [Chlortetracycline]
potentiation when combined with phosphonomycin (pathogenic bacteria): potentiated | MIC of 2nd Subst. in presence of ≤ MIC/4 of phosphonomycin (Proteus vulgaris): 0.25 | MIC (Proteus vulgaris): 2 µg/mL | MIC of 2nd Subst. in presence of ≤ MIC/4 of phosphonomycin (Streptococcus faecalis): 0.5 | MIC (Streptococcus faecalis): 0.5 µg/mL

CC[C@H]1OC(=O)[C@H](C)[C@@H](O[C@H]2C[C@@](C)(OC)[C@@H](O)[C@H](C)O2)[C@H](C)[C@@H](O[C@@H]2O[C@H](C)C[C@H](N(C)C)[C@H]2O)[C@](C)(O)C[C@@H](C)C(=O)[C@H](C)[C@@H](O)[C@]1(C)O [Erythromycin]
MIC (Pseudomonas aeruginosa): > 16000 µg/mL | MIC of 2nd Subst. in presence of ≤ MIC/4 of phosphonomycin (Pseudomonas aeruginosa; resistant growth present): 2000 | MIC of 2nd Subst. in presence of ≤ MIC/4 of phosphonomycin (Staphylococcus aureus [2]): 2 | MIC (Staphylococcus aureus [2]): 8 µg/mL | MIC (Proteus vulgaris): 1000 µg/mL | MIC of 2nd Subst. in presence of phosphonomycin (Proteus vulgaris; [8]): 500 µg/mL | MIC of 2nd Subst. in presence of ≤ MIC/4 of phosphonomycin (Streptococcus faecalis): 16 | MIC (Streptococcus faecalis): 32 µg/mL

O=C(N[C@H](CO)[C@H](O)c1ccc([N+](=O)[O-])cc1)C(Cl)Cl [Chloramphenicol]
% ED50 (Escherichia coli 2017; chloramphenicol repeat test, 7 LD50, alone): 100% | s.c. ED50 (Escherichia coli 2017; chloramphenicol repeat test, 7 LD50, alone, single dose at 0 hour, phosphonomycin as sodium salt): 120 µg | % ED50 (Escherichia coli 2017; [9]): 39% | s.c. ED50 (Escherichia coli 2017; [9]): 47 µg | % ED50 (Escherichia coli 2017; [10]): 17% | s.c. ED50 (Escherichia coli 2017; [10]): 20 µg | % ED50 (Escherichia coli 2017; chloramphenicol repeat test, 7 LD50, phosphonomycin titrated, chloramphenicol constant 5): 4% | % ED50 (Escherichia coli 2017; chloramphenicol repeat test, 7 LD50, phosphonomycin titrated, chloramphenicol constant 50): 42% | % ED50 (Escherichia coli 2017; chloramphenicol test 1, 9 LD50, alone): 100% | % ED50 (Escherichia coli 2017; [11]): 55% | s.c. ED50 (Escherichia coli 2017; [11]): 250 µg | % ED50 (Escherichia coli 2017; [12]): 24% | s.c. ED50 (Escherichia coli 2017; [12]): 107 µg | % ED50 (Escherichia coli 2017; chloramphenicol test 1, 9 LD50, phosphonomycin titrated, chloramphenicol constant 3): 1% | % ED50 (Escherichia coli 2017; chloramphenicol test 1, 9 LD50, phosphonomycin titrated, chloramphenicol constant 30): 7% | MIC (Staphylococcus aureus [4]; Staphylococcus aureus, 24 h, read-out: CLM MIC, alone): 7.8 µg/mL | CLM MIC (Staphylococcus aureus [4]; alone, listed as CLM): 3.9 µg/mL

CN(C)C1C(=O)C(C(N)=O)=C(O)C2(O)C(=O)C3=C(O)c4c(O)cccc4C(C)(O)C3CC12 (stereo not drawn) [Tetracycline]
ED50 (Escherichia coli 2017; alone): 50 γ | % of effective dose (Escherichia coli 2017; [13]): 54% | % of effective dose (Escherichia coli 2017; [14]): 1% | % of effective dose (Escherichia coli 2017; [15]): 25% | ED50 (Escherichia coli 2017; titrated in the presence of 50γ sodium phosphonomycin): 13 γ | % ED50 (Escherichia coli 2017; tetracycline repeat test, 7 LD50, alone): 100% | s.c. ED50 (Escherichia coli 2017; tetracycline repeat test, 7 LD50, alone, single dose at 0 hour, phosphonomycin as sodium salt): 31 µg | % ED50 (Escherichia coli 2017; tetracycline repeat test, 7 LD50, phosphonomycin titrated, tetracycline constant 1): 3% | % ED50 (Escherichia coli 2017; tetracycline repeat test, 7 LD50, phosphonomycin titrated, tetracycline constant 10): 32% | % ED50 (Escherichia coli 2017; [16]): 23% | s.c. ED50 (Escherichia coli 2017; [16]): 7 µg | % ED50 (Escherichia coli 2017; [17]): 100% | s.c. ED50 (Escherichia coli 2017; [17]): 31 µg | % ED50 (Escherichia coli 2017; [18]): 100% | % ED50, Combined % (Escherichia coli 2017; [18]): 100% | s.c. ED50 (Escherichia coli 2017; tetracycline test 1, 9 LD50, alone, single dose at 0 hour, phosphonomycin as sodium salt): 50 µg | % ED50 (Escherichia coli 2017; tetracycline test 1, 9 LD50, phosphonomycin titrated, tetracycline constant 0.5): 1% | % ED50 (Escherichia coli 2017; tetracycline test 1, 9 LD50, phosphonomycin titrated, tetracycline constant 5): 10% | % ED50 (Escherichia coli 2017; [19]): 54% | s.c. ED50 (Escherichia coli 2017; [19]): 27 µg | % ED50 (Escherichia coli 2017; [20]): 25% | s.c. ED50 (Escherichia coli 2017; [20]): 13 µg | enhancement of tetracycline activity (Escherichia coli 2017; two tests, constant quantity of sodium phosphonomycin): enhanced | % ED50 ([5]; alone): 100% | s.c. ED50 [5, 6]: 55 µg | % ED50 [5, 21]: 36% | s.c. ED50 [5, 21]: 35 µg | % ED50 [5, 22]: 33% | s.c. ED50 [5, 22]: 18 µg

C[C@@H]1O[C@@H]1P(=O)(O)O [sodium phosphonomycin]
interaction of combination ([1]; 1 mg. of novobiocin included in the dose): could be considered as potentiation | sodium phosphonomycin required to protect the mice ([1]; 1 mg. of novobiocin included in the dose vs its absence): less sodium phosphonomycin was required to protect the mice | ED50 (Escherichia coli 2017; alone): 1000 γ | % of effective dose (Escherichia coli 2017; [13]): .5% | % of effective dose (Escherichia coli 2017; [14]): 100% | % of effective dose (Escherichia coli 2017; [15]): 5% | ED50 (Escherichia coli 2017; titrated in the presence of 0.5γ tetracycline): 1000 γ | enhancement of sodium phosphonomycin activity (Escherichia coli 2017; two tests, constant quantity of tetracycline): In neither test did a constant quantity of tetracycline enhance sodium phosphonomycin activity
